Data set [1] in a line: DPPH free radical scavenging assay. In outline:
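DPPH at 50 µM final mixed with compound (5–50 µM final) in ethanol at 25.0 ± 0.1 °C in tandem cuvette, read spectrophotometrically. Antioxidant activity percentage, IC50 (concentration reducing 50% of DPPH) and Trolox equivalent capacity derived; Trolox as positive control.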
Background: The DPPH test is a chemical assay of radical scavenging.

In data set [2] the test system is MCF-7 KCR. The experiment in a line: MTT cytotoxicity assay. Type of data set: cell-based, human. The settings on record: Homo sapiens, MCF7, 24 h incubation time. In outline: (§1)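 Cells were exposed 24 h to 0–20 µM (2.5, 5, 10, 15, 20 µM) Cu(II) complexes, ligands or metal salts (equimolar ligand–CuCl2), then 0.5 mg/mL MTT for 1 h at 37 °C. Formazan was dissolved in DMSO and read at 570 nm; viability is relative to untreated control as 100%.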
(In general: Tetrazolium assays rely on reduction of a dye to a coloured formazan, in cell work by metabolically active cells.)

Data set [3] concerns DU-145. The experiment in a line: MTT cytotoxicity assay. The settings on record: Homo sapiens; DU-145, MTT, 24 h incubation time. The class given is cell-based, human. The method in brief:
as §1

The subject of data set [4] is A549. The experiment in a line: MTT cytotoxicity assay. The class given is cell-based, human. The settings on record: Homo sapiens, 24 h incubation time. In outline: as §1
Data set [5] relates to MCF-7. Briefly: MTT cytotoxicity assay. Type of data set: cell-based, human. As to conditions: Homo sapiens, MCF7; MCF-7, MTT, 24 h incubation time. In outline: as §1
Data set [6] concerns S. aureus ATCC 25928. Briefly: MIC determination. Type of data set: cell-based, Staphylococcus aureus. The settings on record: Gram-positive S. aureus ATCC 25928, Mueller Hinton Broth. The method in brief: (§2)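 Broth microdilution in Mueller Hinton Broth, two-fold serial dilutions starting at 100 µM compound (from 10 mM stocks in 90% DMSO). Each well inoculated with a 10^−4 dilution of overnight culture. MIC read per prior lab method.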

For data set [7], the system named is E. faecalis ATCC 29212. The experiment in a line: MIC determination. The class given is cell-based, Enterococcus faecalis. The settings on record: Enterococcus faecalis, ATCC29212; Gram-positive E. faecalis ATCC 29212; Mueller Hinton Broth. The method in brief: as §2
Data set [8] deals with A549, MCF-7, MCF-7 KCR and DU-145 cells. The experiment in a line: γH2AX immunostaining (DNA double-strand breaks). As to conditions: 20 µM, 3 h. The class given is cell-based, human. In outline:
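Cells seeded at 1 × 10^5 per well on coverslips, then fixed with 4% formaldehyde, permeabilized with 0.3% Triton X-100 and blocked in 5% BSA. Stained with anti-γH2AX (1:300) and Alexa 488 secondary (1:600); fluorescence intensity measured by confocal microscopy.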

Data set [9] is classed as physicochemical. In outline:
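UV–vis pH-metric titrations at 25.0 ± 0.1 °C, I = 0.10 M KCl, 30% (v/v) DMSO/H2O under argon; ligand 20 μM, pH 2.0–12.5, alone or with 1 or 0.5 equiv. Cu(II). Spectra 200–800 nm, 2 cm path; pKa, overall stability constants (β) and species spectra fitted with PSEQUAD.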

[10] abbreviates: Cu(II) complex of the named ligand, 30% (v/v) DMSO/H2O, T = 25.0 °C, I = 0.1 M (KCl).

SMILES strings stand for the structures. In brackets after ≈: the same amount, converted by molar mass.

A word on the IC50: it is the concentration that inhibits the measured activity by half. What is called MIC is the lowest concentration found to suppress growth. A low value points to inhibition by little substance. Turning to `C[C@]12CC[C@@H]3c4cc(C=NNC(N)=S)c(O)cc4CC[C@H]3[C@@H]1CCC2O` (some centres unmarked) [estradiol-TSC, 2-((3,17 Dihydroxy-estra-1,3,5(10)-triene-2-yl)methylene)Hydrazine-1-carbothioamide], the “TEAC (Trolox equivalent antioxidant capacity)” value in data set [1] (DPPH assay in ethanol, 25 °C) came out at 0.8. Moreover, the “% Scavenging Effect” value in [1] (DPPH:compound = 1:1 ratio after 30 min, ethanol, 25 °C) is given as 72.0%. Further, the IC50 is 14.6 µM in data set [1] (in ethanol, T = 25 °C, cDPPH = 50 µM, ccompound = 5−50 µM); more than 20 µM in data set [2]; more than 20 µM in data set [3]; 20.5 ± 1.07 µM in data set [4]; more than 20 µM in [5]. Also, the MIC in data set [6] was 25 µM (≈ 9.34 µg/mL); in [6] (Staphylococcus aureus, ATCC25928), 25 µM (≈ 9.34 µg/mL); in data set [7], more than 100 µM. In addition, in data set [8], the “DNA double-strand breaks (γH2AX) vs untreated control cells” value was “None of these treatments caused a higher degree of DNA damage”. Moreover, the “pKa [CuL]+” value in data set [9] was determined as 3.95. The “logβ [CuLH−1]” value in [9] (setting [10]) is on record as 9.84 ± 0.03. The “logβ [CuL]+” value in data set [9] (setting [10]) stood at 13.79 ± 0.03. In data set [9] (calculated at pH 5.0, cCu(II) = 20 µM, cligand = 20 µM), the pCu5.0 was 7.8. In addition, in data set [9] (estimated at pH 6.0, cCu(II) = 20 µM, cligand = 20 µM), the pCu6.0 is reported as 9.3. Besides, in [9] (estimated at pH 7.4, cCu(II) = 20 µM, cligand = 20 µM), the pCu7.4 is recorded as 12.1.

Values taken from PMC9822434, “Estradiol-Based Salicylaldehyde (Thio)Semicarbazones and Their Copper Complexes with Anticancer, Antibacterial and Antioxidant Activities” (Molecules, 2022).
